# Assays:
# [1] = Carrageenin test (anti-inflammatory activity); format: in vivo; details: * significantly active
# Description: (§1) The compounds were examined for Anti-Inflammatory Activity in two conventional tests, the Cotton Pellet Granuloma test and the Carrageenin test.
# [2] = phenyl quinone writhing test (analgesic activity); format: in vivo
# Description: The compounds were also examined for Analgesic Activity in the conventional phenyl quinone writhing test.
# [3] = Cotton Pellet Granuloma test (anti-inflammatory activity); format: in vivo; details: * significantly active
# Description: as §1
# [4] = in vivo
compound,measurement,setting,value
"CC(=O)CCc1cc2c(n1C)C(=O)c1ccccc1CC2 [Example 4, 4-(4,5-Dihydro-10H-1-methyl-10-oxo-benzo[5,6]cyclohepta[1,2-b]-2-pyrryl)butan-2-one]",Carrageenin % Inhibition,[1]; 15 mg/kg,17%
same,Carrageenin % Inhibition,[1]; 45 mg/kg,20%
"Cn1c(CC(=O)O)cc2c1C(=O)c1ccccc1CC2 [Example 2, 4,5-Dihydro-10H-1-methyl-10-oxobenzo[5,6]-cyclohepta[1,2-b]pyrrole-2-aceticacid]",ED50,[2],2.4 mg/kg
same,Carrageenin % Inhibition,[1]; 15 mg/kg,25%
same,Carrageenin % Inhibition,[1]; 45 mg/kg,30%
same,Cotton Pellet % Inhibition,[3]; 10 mg/kg,28%
"Cc1ccc2c(c1)CCc1cc(CC(=O)O)n(C)c1C2=O [Example 1, 4,5-Dihydro-1,7-dimethyl-10H-10-oxo-benzo[5,6]cyclohepta[1,2-b]pyrrole-2-acetic acid]",ED50,[2],5.1 mg/kg
same,TD50,[4],95 mg/kg
same,Carrageenin % Inhibition,[1]; 5 mg/kg,21%
same,Carrageenin % Inhibition,[1]; 25 mg/kg,44%
same,Cotton Pellet % Inhibition,[3]; 25 mg/kg,34%
"CC(O)CCc1cc2c(n1C)C(=O)c1ccccc1CC2 (centres unmarked) [Example 5, 4-(4,5-Dihydro-10H-1-methyl-10-oxo-benzo[5,6]cyclohepta[1,2-b]-2-pyrryl)butan-2-ol]",Carrageenin % Inhibition,[1]; 45 mg/kg,25%
"Cn1c(CC(=O)O)cc2c1C(=O)c1ccc(Cl)cc1CC2 [Example 7, 7-Chloro-4,5-dihydro-10H-1-methyl-10-oxobenzo[5,6]cyclohepta[1,2-b]pyrrole-2-acetic acid]",Carrageenin % Inhibition,[1]; 25 mg/kg,25%
same,Cotton Pellet % Inhibition,[3]; 25 mg/kg,49%
"Cn1c(CC(=O)O)cc2c1C(=O)c1ccc(F)cc1CC2 [Example 8, 4,5-Dihydro-7-fluoro-10H-1-methyl-10-oxobenzo[5,6]cyclohepta[1,2-b]pyrrole-2-acetic acid]",Cotton Pellet % Inhibition,[3]; 10 mg/kg,31%
"CC(=O)OC(C)CCc1cc2c(n1C)C(=O)c1ccccc1CC2 (centres unmarked) [Example 6, 2-Acetoxy-4-(4,5-dihydro-10H-1-methyl-10-oxo-benzo[5,6]cyclohept[1,2-b]-2-pyrryl)butane]",Carrageenin % Inhibition,[1]; 15 mg/kg,17%
same,Carrageenin % Inhibition,[1]; 45 mg/kg,19%
